Laboratory results taken from patent US7915276B2, “Berberrubine derivatives having antifungal activities” (priority 2006, dated 2011).

Experiments:
[1] = target: T1, chitin synthase 1 of Candida albicans chs2 Δ chs 3 Δ (Candida albicans, UniProt P23316); assay: In vitro enzyme assay for chitin synthase 1 of Candida albicans (enzyme 1); assay type: biochemical; conditions: relative to polyoxin D (50% inhibitory activity = value 5)
T1 construct: Crude enzyme was prepared using the Candida albicans chs2 Δ chs 3 Δ mutant; endogenous in cells; host or cells: Candida albicans chs2Δ/chs2Δ chs3Δ/chs3Δ mutant; 130,000 x g membrane pellet
Procedure, shortened: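 Trypsin-activated crude membrane chitin synthase 1 from C. albicans chs2Δ chs3Δ was incubated 90 min at 30 °C with 1.1 mM UDP-[14C]GlcNAc and 2 mM cobalt acetate in Tris-HCl pH 7.5. Filtered TCA precipitate was counted by scintillation; values are scores 1–8 against polyoxin D (5 = same concentration).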

[2] = test system: Candida glabrata ATCC 48435; assay: In vitro antifungal activity (MIC), NCCLS method; assay type: cell-based; conditions: Candida glabrata ATCC 48435; 48 hours
Procedure, shortened: (§1)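 Broth microdilution per NCCLS: two-fold serial dilutions of test compound inoculated with fungal suspension at a final 5×10^2 to 2.5×10^3 cell/mL. Strains other than Cryptococcus neoformans were incubated 48 hours before MIC reading.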

[3] = test system: Candida albicans A207 (clinical isolate); assay: In vitro antifungal activity (MIC), NCCLS method; assay type: cell-based; conditions: 48 hours
Procedure, shortened: as §1

[4] = test system: Aspergillus terreus ATCC 46941; assay: In vitro antifungal activity (MIC), NCCLS method; assay type: cell-based; conditions: 48 hours
Procedure, shortened: (§2)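 Two-fold dilutions, final inoculum 5×10^2–2.5×10^3 cell/mL, NCCLS protocol; 48 h culture for these strains. MIC = minimum inhibitory concentration.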

[5] = test system: Candida lusitaniae ATCC 42720; assay: In vitro antifungal activity (MIC), NCCLS method; assay type: cell-based; conditions: 48 hours
Procedure, shortened: as §1

[6] = test system: Aspergillus flavus ATCC 64025; assay: In vitro antifungal activity (MIC), NCCLS method; assay type: cell-based; conditions: 48 hours
Procedure, shortened: as §2

[7] = test system: Candida krusei ATCC 6258; assay: In vitro antifungal activity (MIC), NCCLS method; assay type: cell-based; conditions: 48 hours
Procedure, shortened: as §1

[8] = test system: Cryptococcus neoformans ATCC 36556; assay: In vitro antifungal activity (MIC), NCCLS method; assay type: cell-based; conditions: RPMI 1640 medium, 72 hours
Procedure, shortened: as §1

[9] = test system: Mucor ramosissimus ATCC 90286; assay: In vitro antifungal activity (MIC), NCCLS method; assay type: cell-based; conditions: 48 hours
Procedure, shortened: as §1

[10] = test system: Candida parapsilosis ATCC 34136; assay: In vitro antifungal activity (MIC), NCCLS method; assay type: cell-based; conditions: Candida parapsilosis ATCC 34136; 48 hours
Procedure, shortened: as §1

[11] = test system: Aspergillus fumigatus ATCC 16424; assay: In vitro antifungal activity (MIC), NCCLS method; assay type: cell-based; conditions: 48 hours
Procedure, shortened: as §2

[12] = test system: Candida albicans ATCC 10231; assay: In vitro antifungal activity (MIC), NCCLS method; assay type: cell-based; conditions: 48 hours
Procedure, shortened: as §1

[13] = test system: Candida tropicalis ATCC 13803; assay: In vitro antifungal activity (MIC), NCCLS method; assay type: cell-based; conditions: 48 hours
Procedure, shortened: as §1

[14] = target: T2, chitin synthase 2 of Saccharomyces cerevisiae ECY38-38A(pAS6) (Saccharomyces cerevisiae, UniProt P14180); assay: In vitro enzyme assay for chitin synthase 2 of Saccharomyces cerevisiae (enzyme 2); assay type: biochemical; conditions: relative to polyoxin D (50% inhibitory activity = value 5)
T2 construct: made in house; host or cells: Saccharomyces cerevisiae ECY38-38A (chs1-23 chs2::LEU2 cal1/csd2) carrying plasmid pAS6, grown in galactose medium; 130,000 x g membrane pellet
Procedure, shortened: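 Values are scores: 5 means 50% inhibition at the same concentration as polyoxin D, lower scores 2- to 16-fold higher concentration, higher scores ½ to ⅛. Radiolabel from 1.1 mM UDP-[14C]-GlcNAc was incorporated into TCA-insoluble chitin over 90 min at 30 °C (pH 7.5 Tris, 2 mM Co2+). The enzyme was a trypsin-activated membrane fraction from CHS2-only S. cerevisiae ECY38-38A(pAS6).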

T2 sequence (P14180 whole entry): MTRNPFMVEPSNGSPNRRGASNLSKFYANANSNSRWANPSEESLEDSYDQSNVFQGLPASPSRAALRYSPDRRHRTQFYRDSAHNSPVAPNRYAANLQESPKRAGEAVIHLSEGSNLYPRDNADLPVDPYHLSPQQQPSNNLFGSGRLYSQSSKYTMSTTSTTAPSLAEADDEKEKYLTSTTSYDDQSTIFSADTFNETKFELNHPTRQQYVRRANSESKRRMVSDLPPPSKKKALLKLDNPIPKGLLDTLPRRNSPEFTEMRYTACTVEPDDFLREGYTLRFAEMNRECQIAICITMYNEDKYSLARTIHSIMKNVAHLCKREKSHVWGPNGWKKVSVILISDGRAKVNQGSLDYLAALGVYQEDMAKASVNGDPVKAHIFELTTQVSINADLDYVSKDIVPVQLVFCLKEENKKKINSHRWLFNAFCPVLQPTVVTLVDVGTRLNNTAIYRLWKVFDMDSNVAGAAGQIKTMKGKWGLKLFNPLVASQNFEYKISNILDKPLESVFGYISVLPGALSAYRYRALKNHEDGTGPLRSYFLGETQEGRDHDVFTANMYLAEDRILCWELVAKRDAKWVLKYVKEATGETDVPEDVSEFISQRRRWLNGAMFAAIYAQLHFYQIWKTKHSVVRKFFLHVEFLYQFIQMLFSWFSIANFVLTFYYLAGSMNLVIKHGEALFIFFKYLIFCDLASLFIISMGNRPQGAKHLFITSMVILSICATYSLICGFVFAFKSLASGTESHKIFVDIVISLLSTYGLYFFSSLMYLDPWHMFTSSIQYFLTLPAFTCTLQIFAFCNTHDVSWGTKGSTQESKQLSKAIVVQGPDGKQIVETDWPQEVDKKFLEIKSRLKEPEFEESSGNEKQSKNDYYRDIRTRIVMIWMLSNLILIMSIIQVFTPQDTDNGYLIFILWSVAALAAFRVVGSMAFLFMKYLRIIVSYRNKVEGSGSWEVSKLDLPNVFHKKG
T1 sequence (P23316 whole entry, stated change not applied): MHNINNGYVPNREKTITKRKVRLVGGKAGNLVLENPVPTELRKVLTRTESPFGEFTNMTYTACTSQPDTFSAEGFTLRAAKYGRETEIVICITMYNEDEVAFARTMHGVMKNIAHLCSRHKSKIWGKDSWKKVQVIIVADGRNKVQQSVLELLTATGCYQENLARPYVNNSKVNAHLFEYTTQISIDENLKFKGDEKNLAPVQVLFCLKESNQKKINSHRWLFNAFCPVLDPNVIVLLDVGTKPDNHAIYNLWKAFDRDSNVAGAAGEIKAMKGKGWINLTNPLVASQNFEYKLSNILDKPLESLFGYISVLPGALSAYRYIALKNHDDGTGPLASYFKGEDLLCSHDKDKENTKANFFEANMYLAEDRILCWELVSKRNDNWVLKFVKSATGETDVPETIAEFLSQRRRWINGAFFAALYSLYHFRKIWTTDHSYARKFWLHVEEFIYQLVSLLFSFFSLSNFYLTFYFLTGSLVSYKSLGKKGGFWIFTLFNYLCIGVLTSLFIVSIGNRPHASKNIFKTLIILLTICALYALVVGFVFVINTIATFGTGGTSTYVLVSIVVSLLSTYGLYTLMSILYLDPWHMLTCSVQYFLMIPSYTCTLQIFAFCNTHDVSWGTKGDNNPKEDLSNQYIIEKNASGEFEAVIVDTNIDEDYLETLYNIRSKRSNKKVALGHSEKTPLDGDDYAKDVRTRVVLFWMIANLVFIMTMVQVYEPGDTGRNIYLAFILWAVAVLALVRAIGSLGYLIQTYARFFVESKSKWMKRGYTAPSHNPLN

Substance | Relative activity Enzyme 1 [1] | MIC (minimum inhibitory concentration) [2] | MIC (minimum inhibitory concentration) [3] | MIC (minimum inhibitory concentration) [4] | MIC (minimum inhibitory concentration) [5] | MIC (minimum inhibitory concentration) [6] | MIC (minimum inhibitory concentration) [7] | MIC (minimum inhibitory concentration) [8] | MIC (minimum inhibitory concentration) [9] | MIC (minimum inhibitory concentration) [10] | MIC (minimum inhibitory concentration) [11] | MIC (minimum inhibitory concentration) [12] | MIC (minimum inhibitory concentration) [13] | Relative activity Enzyme 2 [14]
13-(4-tert-Butylbenzyl)-9-O-(4-tert-butylbenzyl)berberrubine bromide [Compound No. 15] | 3 (Compounds having the inhibitory activity at 2-fold, 4-fold, 8-fold and 16-fold higher concentrations than that of polyoxin D were given the values of 4, 3, 2 and 1, respectively) | 4 µg/mL | 1 µg/mL | 8 µg/mL | 4 µg/mL | 8 µg/mL | 4 µg/mL | 2 µg/mL | 8 µg/mL | 8 µg/mL | 4 µg/mL | 1 µg/mL | 1 µg/mL | 5 (A compound having the same inhibitory activity as that of polyoxin D at the same concentration was given the value 5)
13-(4-tert-Butylbenzyl)-9-O-(6-chlorohexyl)berberrubine iodide [Compound No. 12] | 2 (Compounds having the inhibitory activity at 2-fold, 4-fold, 8-fold and 16-fold higher concentrations than that of polyoxin D were given the values of 4, 3, 2 and 1, respectively) | 2 µg/mL | 0.5 µg/mL | 8 µg/mL | 2 µg/mL | 8 µg/mL | 1 µg/mL | 1 µg/mL | 4 µg/mL | 2 µg/mL | 2 µg/mL | 0.5 µg/mL | 0.5 µg/mL | 5 (A compound having the same inhibitory activity as that of polyoxin D at the same concentration was given the value 5)
13-(4-tert-Butylbenzyl)-9-O-(3-hydroxypropyl)berberrubine chloride [Compound No. 43] | 4 (Compounds having the inhibitory activity at 2-fold, 4-fold, 8-fold and 16-fold higher concentrations than that of polyoxin D were given the values of 4, 3, 2 and 1, respectively) | 2 µg/mL | 0.5 µg/mL | 8 µg/mL | 2 µg/mL | 8 µg/mL | 1 µg/mL | 1 µg/mL | 4 µg/mL | 2 µg/mL | 2 µg/mL | 0.5 µg/mL | 0.5 µg/mL | 7 (compounds having the inhibitory activity at ½, ¼ and ⅛ lower concentrations than that of polyoxin D were given the values of 6, 7 and 8, respectively)
13-(4-Isopropylbenzyl)-9-O-(4-isopropylbenzyl)berberrubine chloride [Compound No. 58] | 2 (Compounds having the inhibitory activity at 2-fold, 4-fold, 8-fold and 16-fold higher concentrations than that of polyoxin D were given the values of 4, 3, 2 and 1, respectively) | 2 µg/mL | 1 µg/mL | 8 µg/mL | 4 µg/mL | 8 µg/mL | 2 µg/mL | 2 µg/mL | 8 µg/mL | 8 µg/mL | 4 µg/mL | 1 µg/mL | 1 µg/mL | 5 (A compound having the same inhibitory activity as that of polyoxin D at the same concentration was given the value 5)
13-(4-tert-Butylbenzyl)-9-O-(3-hydroxypropyl)berberrubine iodide [Compound No. 11] | 4 (Compounds having the inhibitory activity at 2-fold, 4-fold, 8-fold and 16-fold higher concentrations than that of polyoxin D were given the values of 4, 3, 2 and 1, respectively) | 2 µg/mL | 0.5 µg/mL | 8 µg/mL | 2 µg/mL | 8 µg/mL | 1 µg/mL | 1 µg/mL | 4 µg/mL | 2 µg/mL | 2 µg/mL | 0.5 µg/mL | 0.5 µg/mL | 6 (compounds having the inhibitory activity at ½, ¼ and ⅛ lower concentrations than that of polyoxin D were given the values of 6, 7 and 8, respectively)
13-(4-tert-Butylbenzyl)-9-O-allylberberrubine chloride [Compound No. 45] | 2 (Compounds having the inhibitory activity at 2-fold, 4-fold, 8-fold and 16-fold higher concentrations than that of polyoxin D were given the values of 4, 3, 2 and 1, respectively) | 8 µg/mL | 1 µg/mL | 8 µg/mL | 2 µg/mL | 8 µg/mL | 2 µg/mL | 2 µg/mL | 4 µg/mL | 4 µg/mL | 8 µg/mL | 1 µg/mL | 1 µg/mL | 6 (compounds having the inhibitory activity at ½, ¼ and ⅛ lower concentrations than that of polyoxin D were given the values of 6, 7 and 8, respectively)
